From US20090137572A1, “2-substituted-4-heteroaryl-pyrimidines useful for the treatment of proliferative disorders” (priority 2004, published 2009) come the findings set out here.

For orientation: melting point means the temperature of the solid-liquid transition.

For one data set, the target named is CDK9/cyclin T1 (Homo sapiens, UniProt P50750). Put plainly: CDK 9 assay (CTD peptide substrate). The note with it: read-out: Kinase Inhibition pIC50 CDK9-cyclin T1 (converted). It counts as biochemical. The method in brief: (§1)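 32P transfer from 100 μM ATP (trace [γ-32P]ATP) to a biotinyl CTD (YSPTSPS)4 peptide was measured after 45 min at 30 °C in pH 7.2 MOPS buffer, 15 mM MgCl2, using recombinant human CDK7/cyclin H or CDK9/cyclin T1. Signal read by filter binding and scintillation counting.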
Chain of CDK9/cyclin T1 (P50750 whole entry): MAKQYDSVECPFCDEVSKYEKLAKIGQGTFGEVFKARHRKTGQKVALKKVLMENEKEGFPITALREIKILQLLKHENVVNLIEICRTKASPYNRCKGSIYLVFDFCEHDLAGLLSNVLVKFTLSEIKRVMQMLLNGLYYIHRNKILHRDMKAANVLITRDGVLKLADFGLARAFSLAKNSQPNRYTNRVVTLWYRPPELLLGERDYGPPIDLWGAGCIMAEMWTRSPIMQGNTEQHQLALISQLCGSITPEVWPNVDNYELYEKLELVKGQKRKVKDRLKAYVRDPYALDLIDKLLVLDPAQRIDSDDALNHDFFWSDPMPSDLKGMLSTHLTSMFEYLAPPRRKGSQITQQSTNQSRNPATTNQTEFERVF
Chain of CDK9/cyclin T1 (O60563 whole entry partner): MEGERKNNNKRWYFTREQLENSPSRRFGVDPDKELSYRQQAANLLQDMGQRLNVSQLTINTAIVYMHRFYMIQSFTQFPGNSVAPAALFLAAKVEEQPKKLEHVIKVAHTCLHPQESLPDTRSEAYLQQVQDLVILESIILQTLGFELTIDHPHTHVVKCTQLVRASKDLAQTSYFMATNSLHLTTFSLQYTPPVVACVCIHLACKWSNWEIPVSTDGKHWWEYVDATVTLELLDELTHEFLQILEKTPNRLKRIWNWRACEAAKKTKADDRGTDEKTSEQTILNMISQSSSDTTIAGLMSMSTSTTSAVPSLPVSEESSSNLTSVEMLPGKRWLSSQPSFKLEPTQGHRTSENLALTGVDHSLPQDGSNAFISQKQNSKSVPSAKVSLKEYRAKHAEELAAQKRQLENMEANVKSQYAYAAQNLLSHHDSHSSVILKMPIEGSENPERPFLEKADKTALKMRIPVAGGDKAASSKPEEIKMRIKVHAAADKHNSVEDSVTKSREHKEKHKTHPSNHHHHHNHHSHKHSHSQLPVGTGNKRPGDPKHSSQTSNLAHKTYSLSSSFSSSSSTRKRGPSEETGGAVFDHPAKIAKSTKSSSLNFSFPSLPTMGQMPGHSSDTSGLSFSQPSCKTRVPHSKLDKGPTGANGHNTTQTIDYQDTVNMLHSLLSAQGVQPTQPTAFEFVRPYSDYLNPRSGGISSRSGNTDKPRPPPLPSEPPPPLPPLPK

Another data set concerns the target CDK7/cyclin H (Homo sapiens, UniProt P50613). Description: CDK 7 assay (CTD peptide substrate). It counts as biochemical. The settings on record: read-out: Kinase Inhibition pIC50 CDK7-cyclin H (converted). The method in brief: as §1
The next data set has as its target CDK2-cycline E (Homo sapiens, UniProt P24941). Put plainly: Kinase assay (radioactive phosphate incorporation), CDK2-cyclin E. It counts as biochemical. The settings on record: read-out: Kinase Inhibition pIC50 CDK2-cycline E (converted). The method in brief: (§2)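 Inhibition measured as 32P transfer from ATP (100 μM, 15 mM MgCl2) onto peptide substrates at 30° C. Each assay used 2-4 μg active recombinant enzyme in pH 7.4 buffer. Reactions stopped on ice, filtered, acid-washed and counted; compounds diluted into 10% DMSO in assay buffer.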

The target in a further data set is CDK1-cyclin B (Homo sapiens, UniProt P06493). Description: Kinase assay (radioactive phosphate incorporation), CDK1-cyclin B. It is filed as biochemical. The settings on record: read-out: Kinase Inhibition pIC50 CDK1-cyclin B (converted). In a few lines: as §2
Chain of CDK1-cyclin B (P06493 whole entry): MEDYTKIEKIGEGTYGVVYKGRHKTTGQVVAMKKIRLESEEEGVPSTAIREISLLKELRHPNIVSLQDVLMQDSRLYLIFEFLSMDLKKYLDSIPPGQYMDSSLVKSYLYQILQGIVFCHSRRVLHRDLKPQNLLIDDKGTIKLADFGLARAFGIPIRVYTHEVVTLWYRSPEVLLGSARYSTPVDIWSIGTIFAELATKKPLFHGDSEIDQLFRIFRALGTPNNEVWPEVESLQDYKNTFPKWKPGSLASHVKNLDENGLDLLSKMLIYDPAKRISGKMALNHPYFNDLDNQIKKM
Chain of CDK1-cyclin B (P14635 whole entry partner): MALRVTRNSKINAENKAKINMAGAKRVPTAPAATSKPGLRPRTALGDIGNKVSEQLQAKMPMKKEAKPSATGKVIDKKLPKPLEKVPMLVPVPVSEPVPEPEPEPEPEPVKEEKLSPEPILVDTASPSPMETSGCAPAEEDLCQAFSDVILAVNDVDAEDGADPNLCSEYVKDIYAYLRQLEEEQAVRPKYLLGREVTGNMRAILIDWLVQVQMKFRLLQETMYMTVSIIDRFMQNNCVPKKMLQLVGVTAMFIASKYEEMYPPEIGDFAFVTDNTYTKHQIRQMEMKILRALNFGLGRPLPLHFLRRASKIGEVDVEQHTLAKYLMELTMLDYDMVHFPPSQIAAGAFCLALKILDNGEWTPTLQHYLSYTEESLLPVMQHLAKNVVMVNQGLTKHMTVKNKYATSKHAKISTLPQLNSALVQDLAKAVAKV
In a further data set the target is CDK4-cyclin D1 (Homo sapiens, UniProt P11802). Description: Kinase assay (radioactive phosphate incorporation), CDK4-cyclin D1. It is filed as biochemical. The note with it: read-out: Kinase Inhibition pIC50 CDK4-cyclin D1 (converted). The method in brief: as §2
Chain of CDK4-cyclin D1 (P11802 whole entry): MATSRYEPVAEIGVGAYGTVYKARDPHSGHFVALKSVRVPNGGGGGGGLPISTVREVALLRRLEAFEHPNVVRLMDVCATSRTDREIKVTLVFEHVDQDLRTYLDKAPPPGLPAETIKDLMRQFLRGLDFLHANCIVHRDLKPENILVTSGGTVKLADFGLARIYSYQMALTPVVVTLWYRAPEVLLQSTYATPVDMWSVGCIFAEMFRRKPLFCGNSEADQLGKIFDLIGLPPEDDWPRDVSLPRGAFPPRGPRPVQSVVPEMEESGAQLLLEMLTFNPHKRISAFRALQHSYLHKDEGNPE
Chain of CDK4-cyclin D1 (P24385 whole entry partner): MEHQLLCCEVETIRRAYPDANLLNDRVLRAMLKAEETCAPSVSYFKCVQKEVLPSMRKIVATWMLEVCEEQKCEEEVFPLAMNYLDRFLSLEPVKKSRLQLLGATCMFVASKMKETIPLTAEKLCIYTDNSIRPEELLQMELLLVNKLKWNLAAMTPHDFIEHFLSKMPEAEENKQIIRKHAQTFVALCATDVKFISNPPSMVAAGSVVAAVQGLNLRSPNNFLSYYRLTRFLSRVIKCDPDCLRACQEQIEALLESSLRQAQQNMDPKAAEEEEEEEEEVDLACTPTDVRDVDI
Data set [1] addresses T1, Flt3 (FMS-like tyrosine kinase-3) (Homo sapiens, UniProt P36888).
T1 sequence (P36888 27-993): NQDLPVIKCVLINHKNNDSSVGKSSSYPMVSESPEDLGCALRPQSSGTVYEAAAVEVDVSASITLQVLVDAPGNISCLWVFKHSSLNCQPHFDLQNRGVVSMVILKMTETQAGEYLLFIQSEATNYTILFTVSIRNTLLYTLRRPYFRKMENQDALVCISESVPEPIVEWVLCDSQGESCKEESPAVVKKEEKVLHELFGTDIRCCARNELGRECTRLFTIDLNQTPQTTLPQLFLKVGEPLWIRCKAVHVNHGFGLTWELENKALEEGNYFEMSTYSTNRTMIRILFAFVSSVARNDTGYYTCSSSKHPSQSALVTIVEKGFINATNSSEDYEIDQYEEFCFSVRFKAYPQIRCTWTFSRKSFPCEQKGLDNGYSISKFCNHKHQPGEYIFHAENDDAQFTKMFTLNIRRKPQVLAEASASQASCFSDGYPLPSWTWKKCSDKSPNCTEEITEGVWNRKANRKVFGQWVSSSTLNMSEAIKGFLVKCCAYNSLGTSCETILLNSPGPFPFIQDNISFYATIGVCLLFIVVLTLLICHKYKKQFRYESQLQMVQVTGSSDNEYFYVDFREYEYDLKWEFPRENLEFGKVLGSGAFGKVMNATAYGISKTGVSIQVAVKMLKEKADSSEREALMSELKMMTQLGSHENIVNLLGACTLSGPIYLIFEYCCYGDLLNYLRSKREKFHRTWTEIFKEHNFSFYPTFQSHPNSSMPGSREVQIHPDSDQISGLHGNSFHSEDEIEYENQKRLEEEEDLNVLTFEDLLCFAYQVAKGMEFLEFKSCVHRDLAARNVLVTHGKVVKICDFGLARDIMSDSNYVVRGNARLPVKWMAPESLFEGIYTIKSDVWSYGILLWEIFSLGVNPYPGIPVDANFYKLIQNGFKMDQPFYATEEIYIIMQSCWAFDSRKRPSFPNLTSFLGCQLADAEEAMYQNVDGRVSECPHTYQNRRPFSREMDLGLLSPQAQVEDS
Put plainly: Kinase assay (radioactive phosphate incorporation), Flt3. It is filed as biochemical. The note with it: pIC50 is -log(IC50, M), read-out: Kinase Inhibition pIC50 Flt3 (converted). In a few lines: as §2

The target of the next data set is GSK3b (Homo sapiens, UniProt P49841). Put plainly: Kinase assay (radioactive phosphate incorporation), GSK-3b. The settings on record: read-out: Kinase Inhibition pIC50 GSK-3b (converted). It is filed as biochemical. In a few lines:
as §2

Another data set has as its target CDK2-cyclin A (Homo sapiens, UniProt P24941). Put plainly: Kinase assay (radioactive phosphate incorporation), CDK2-cyclin A. It is filed as biochemical. The note with it: read-out: Kinase Inhibition pIC50 CDK2-cyclin A (converted). In a few lines: as §2
The target in a further data set is T2, Aurora A kinase (Homo sapiens, UniProt O14965).
T2 construct: purchased
T2 sequence (O14965 1-403): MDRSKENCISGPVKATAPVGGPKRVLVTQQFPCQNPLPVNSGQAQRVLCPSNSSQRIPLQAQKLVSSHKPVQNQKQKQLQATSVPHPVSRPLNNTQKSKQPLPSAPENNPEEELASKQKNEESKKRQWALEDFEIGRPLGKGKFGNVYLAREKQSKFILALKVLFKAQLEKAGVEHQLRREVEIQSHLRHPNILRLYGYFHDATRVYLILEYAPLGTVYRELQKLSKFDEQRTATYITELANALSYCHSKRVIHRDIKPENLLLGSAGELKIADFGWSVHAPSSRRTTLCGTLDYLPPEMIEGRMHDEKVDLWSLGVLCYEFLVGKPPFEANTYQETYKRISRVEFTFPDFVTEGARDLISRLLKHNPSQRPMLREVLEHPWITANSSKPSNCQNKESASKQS
Put plainly: Aurora-A (human) kinase assay (Kemptide substrate). The note with it: pIC50 is -log(IC50, M); 15 μM ATP; read-out: Kinase Inhibition pIC50 Aurora A kinase (converted). It counts as biochemical. The method in brief:
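Kemptide (LRRASLG, 200 μM) phosphorylation by 5-10 ng commercial aurora-A measured as [γ-33P] incorporation at 15 μM ATP with 10 mM Mg acetate, pH 7.0 MOPS buffer. Reaction ran 40 min at room temperature; acid-stopped, captured on P81 filters, scintillation read.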

Chain of CDK7/cyclin H (P50613 whole entry): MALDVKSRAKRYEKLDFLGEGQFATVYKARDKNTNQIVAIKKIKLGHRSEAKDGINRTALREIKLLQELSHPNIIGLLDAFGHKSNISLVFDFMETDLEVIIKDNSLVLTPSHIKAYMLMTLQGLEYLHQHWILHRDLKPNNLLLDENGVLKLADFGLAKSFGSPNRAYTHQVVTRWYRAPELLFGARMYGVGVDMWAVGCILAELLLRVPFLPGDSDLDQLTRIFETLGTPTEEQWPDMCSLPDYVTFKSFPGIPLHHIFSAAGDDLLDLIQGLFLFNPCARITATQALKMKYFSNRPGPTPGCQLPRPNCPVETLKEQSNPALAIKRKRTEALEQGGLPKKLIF
Chain of CDK7/cyclin H (P51946 whole entry partner): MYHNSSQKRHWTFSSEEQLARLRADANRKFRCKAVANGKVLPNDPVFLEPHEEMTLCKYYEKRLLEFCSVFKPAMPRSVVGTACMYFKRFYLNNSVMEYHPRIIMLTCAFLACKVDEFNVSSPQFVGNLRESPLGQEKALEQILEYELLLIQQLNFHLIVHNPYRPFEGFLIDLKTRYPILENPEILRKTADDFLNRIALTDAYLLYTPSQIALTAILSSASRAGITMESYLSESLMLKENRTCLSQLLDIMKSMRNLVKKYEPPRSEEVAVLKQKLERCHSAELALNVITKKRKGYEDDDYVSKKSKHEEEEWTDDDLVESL
Chain of GSK3b (P49841 whole entry, species assumed): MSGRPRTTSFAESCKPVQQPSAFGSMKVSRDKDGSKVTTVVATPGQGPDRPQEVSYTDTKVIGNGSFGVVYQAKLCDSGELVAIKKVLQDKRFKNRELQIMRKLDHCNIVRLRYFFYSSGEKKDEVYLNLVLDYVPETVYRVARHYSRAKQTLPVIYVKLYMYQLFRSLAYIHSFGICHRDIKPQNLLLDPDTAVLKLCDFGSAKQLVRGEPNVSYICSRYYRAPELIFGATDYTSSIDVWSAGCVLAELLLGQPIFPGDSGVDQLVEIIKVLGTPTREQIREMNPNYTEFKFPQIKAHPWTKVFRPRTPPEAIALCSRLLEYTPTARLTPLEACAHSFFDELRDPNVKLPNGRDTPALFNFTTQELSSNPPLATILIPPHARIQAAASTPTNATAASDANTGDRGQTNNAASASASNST

Compound `CCNc1nc(C)c(-c2ccnc(Nc3cccc(S(=O)(=O)NCCO)c3)n2)s1` [Compound 75, 3-[4-(2-Ethylamino-4-methyl-thiazol-5-yl)-pyrimidin-2-ylamino]-N-(2-hydroxy-ethyl)-benzenesulfonamide] showed a melting point of 124 to 125 °C. Besides, on CDK9/cyclin T1, the IC50 was 63.1 nM. Further, the IC50 on CDK7/cyclin H was 398 nM. Also, the IC50 at CDK2-cycline E is 200 nM. Further, the IC50 at CDK1-cyclin B is 1000 nM. Also, the IC50 at CDK4-cyclin D1 is 126 nM. In [1], the IC50 was 63.1 nM. Besides, the IC50 at GSK3b is 794 nM. The IC50 on CDK2-cyclin A was 1260 nM.

In turn, `CNc1nc(C)c(-c2ccnc(Nc3cccc(S(=O)(=O)NCCO)c3)n2)s1` [Compound 76, N-(2-Hydroxy-ethyl)-3-[4-(4-methyl-2-methylamino-thiazol-5-yl)-pyrimidin-2-ylamino]-benzenesulfonamide] yielded a melting point of 189 to 190 °C. Besides, the IC50 at CDK9/cyclin T1 was 63.1 nM. At CDK7/cyclin H, the IC50 is 794 nM. Further, the IC50 at CDK2-cycline E was 316 nM. On CDK1-cyclin B, the IC50 is 1260 nM. On Aurora A kinase, the IC50 is 39.8 nM. Moreover, on CDK4-cyclin D1, the IC50 is 100 nM. The IC50 in data set [1] was 100 nM. The IC50 on GSK3b is 501 nM. In addition, the IC50 on CDK2-cyclin A was 1580 nM.
